Test system: bedsores
Test: Clinical observation of bedsores in dementia patients with agitation treated orally with nabilone
Type: in vivo
Experimental: Patients with dementia having agitation were treated orally at a dose of 0.5 mg nabilone twice a day initially and then going up to a total of 2 mg per day to reduce agitation. […] The number of patients where this effect was observed was six. The perceived impact on healing was significant with healing times varying between 3-6 weeks for small sores.

## CCCCCCC(C)(C)c1cc(O)c2c(c1)OC(C)(C)C1CCC(=O)CC21 (stereo not shown) [nabilone]
Oral 0.5 mg twice a day up to 2 mg per day
  large sores in treated patients: No large sores were observed
Patients who did have bedsores, oral 0.5 mg twice a day up to 2 mg per day
  healing of existing bedsores: the bedsores appeared to heal faster
Patients with dementia having agitation, oral 0.5 mg twice a day initially, up to total 2 mg per day, effect observed in six patients
  number and/or severity of bedsores: perceived reduction in the number and/or severity of bedsores
Small sores, oral 0.5 mg twice a day up to 2 mg per day
  healing times for small sores: 3-6 weeks

Source: patent publication US20210052544A1, “METHODS OF TREATING AND/OR […] USING NABILONE” (Solantech Inc., priority 2018, published 2021)
